Tests used:
Assay in all cases: relative viability (nuclei count vs DMSO), 5 days (fraction); higher = more cells survive
[1] = test system: ABC-1
How it was run: (§1)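 Medians of duplicate plates are given as relative viability. That measure is the nuclei count in treated wells divided by the count in vehicle wells. Counts were taken on 4× images of lung cancer cell lines in 1536-well plates, 5 days after pin-tool dosing the day after seeding with one drug alone or a fixed anchor-drug dose plus five library-drug doses (not always all listed) in √10 steps.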

[2] = test system: CAL-12T
How it was run: as §1

[3] = test system: COR-L23
How it was run: as §1

[4] = test system: EMC-BAC-2
How it was run: as §1

[5] = test system: HARA
How it was run: as §1

[6] = test system: HCC-366
How it was run: as §1

[7] = test system: HOP-62
How it was run: as §1

[8] = test system: LK-2
How it was run: as §1

[9] = test system: NCI-H1437
How it was run: as §1

[10] = test system: NCI-H1650
How it was run: as §1

[11] = test system: NCI-H1651
How it was run: as §1

[12] = test system: NCI-H1734
How it was run: as §1

[13] = test system: NCI-H1755
How it was run: as §1

[14] = test system: NCI-H2347
How it was run: as §1

[15] = test system: NCI-H3122
How it was run: as §1

[16] = test system: NCI-H441
How it was run: as §1

[17] = test system: NCI-H596
How it was run: as §1

[18] = test system: NCI-H727
How it was run: as §1

[19] = test system: PC-3 [JPC-3]
How it was run: as §1

[20] = test system: RERF-LC-KJ
How it was run: as §1

[21] = test system: SK-LU-1
How it was run: as §1

[22] = test system: UMC-11
How it was run: as §1

Q: Cc1cn(-c2cc(NC(=O)c3ccc(C)c(Nc4nccc(-c5cccnc5)n4)c3)cc(C(F)(F)F)c2)cn1 [Nilotinib] + O=C(CCCCCCC(=O)Nc1ccccc1)NO [Vorinostat] (partner 1 µM) was tested. Which relative viability ([1]; first compound 0.001 µM) did it give?
A: 1.07

Q: And the relative viability ([1]; first compound 0.003162 µM)?
A: 1.03

Q: What about the relative viability ([1]; first compound 0.01 µM) of the same compound?
A: 1.11

Q: And the relative viability ([1]; first compound 0.03162 µM)?
A: 1.1

Q: What about the relative viability ([1]; first compound 0.1 µM) of the same compound?
A: 0.754

Q: What about the relative viability ([2]; first compound 0.001 µM) of the same compound?
A: 0.673

Q: And the relative viability ([2]; first compound 0.003162 µM)?
A: 0.704

Q: What about the relative viability ([2]; first compound 0.01 µM) of the same compound?
A: 0.994

Q: And the relative viability ([2]; first compound 0.03162 µM)?
A: 0.573

Q: And the relative viability ([2]; first compound 0.1 µM)?
A: 0.566

Q: What about the relative viability ([3]; first compound 0.001 µM) of the same compound?
A: 0.317

Q: And the relative viability ([3]; first compound 0.003162 µM)?
A: 0.347

Q: And the relative viability ([3]; first compound 0.01 µM)?
A: 0.406

Q: What about the relative viability ([3]; first compound 0.03162 µM) of the same compound?
A: 0.373

Q: And the relative viability ([3]; first compound 0.1 µM)?
A: 0.392

Q: What about the relative viability ([4]; first compound 0.001 µM) of the same compound?
A: 0.369

Q: What about the relative viability ([4]; first compound 0.003162 µM) of the same compound?
A: 0.339

Q: What about the relative viability ([4]; first compound 0.01 µM) of the same compound?
A: 0.429

Q: What about the relative viability ([4]; first compound 0.03162 µM) of the same compound?
A: 0.319

Q: What about the relative viability ([4]; first compound 0.1 µM) of the same compound?
A: 0.33

Q: And the relative viability ([5]; first compound 0.001 µM)?
A: 0.544

Q: What about the relative viability ([5]; first compound 0.003162 µM) of the same compound?
A: 0.668

Q: And the relative viability ([5]; first compound 0.01 µM)?
A: 0.507

Q: What about the relative viability ([5]; first compound 0.03162 µM) of the same compound?
A: 0.401

Q: What about the relative viability ([5]; first compound 0.1 µM) of the same compound?
A: 0.423

Q: What about the relative viability ([6]; first compound 0.001 µM) of the same compound?
A: 0.33

Q: What about the relative viability ([6]; first compound 0.003162 µM) of the same compound?
A: 0.361

Q: What about the relative viability ([6]; first compound 0.01 µM) of the same compound?
A: 0.364

Q: What about the relative viability ([6]; first compound 0.03162 µM) of the same compound?
A: 0.27

Q: What about the relative viability ([6]; first compound 0.1 µM) of the same compound?
A: 0.212

Q: And the relative viability ([7]; first compound 0.001 µM)?
A: 0.625

Q: What about the relative viability ([7]; first compound 0.003162 µM) of the same compound?
A: 0.567

Q: What about the relative viability ([7]; first compound 0.01 µM) of the same compound?
A: 0.631

Q: What about the relative viability ([7]; first compound 0.03162 µM) of the same compound?
A: 0.479

Q: What about the relative viability ([8]; first compound 0.001 µM) of the same compound?
A: 0.261

Q: And the relative viability ([8]; first compound 0.003162 µM)?
A: 0.23

Q: And the relative viability ([8]; first compound 0.01 µM)?
A: 0.342

Q: And the relative viability ([8]; first compound 0.03162 µM)?
A: 0.199

Q: And the relative viability ([8]; first compound 0.1 µM)?
A: 0.27

Q: And the relative viability ([9]; first compound 0.001 µM)?
A: 0.664

Q: And the relative viability ([9]; first compound 0.003162 µM)?
A: 0.97

Q: And the relative viability ([9]; first compound 0.01 µM)?
A: 0.878

Q: What about the relative viability ([9]; first compound 0.03162 µM) of the same compound?
A: 0.506

Q: What about the relative viability ([9]; first compound 0.1 µM) of the same compound?
A: 0.583

Q: What about the relative viability ([10]; first compound 0.001 µM) of the same compound?
A: 0.49

Q: What about the relative viability ([10]; first compound 0.003162 µM) of the same compound?
A: 0.733

Q: What about the relative viability ([10]; first compound 0.01 µM) of the same compound?
A: 0.746

Q: What about the relative viability ([10]; first compound 0.03162 µM) of the same compound?
A: 0.488

Q: What about the relative viability ([10]; first compound 0.1 µM) of the same compound?
A: 0.528

Q: What about the relative viability ([11]; first compound 0.001 µM) of the same compound?
A: 0.531

Q: And the relative viability ([11]; first compound 0.003162 µM)?
A: 0.612

Q: And the relative viability ([11]; first compound 0.01 µM)?
A: 0.602

Q: What about the relative viability ([11]; first compound 0.03162 µM) of the same compound?
A: 0.528

Q: And the relative viability ([11]; first compound 0.1 µM)?
A: 0.418

Q: What about the relative viability ([12]; first compound 0.001 µM) of the same compound?
A: 0.761

Q: What about the relative viability ([12]; first compound 0.003162 µM) of the same compound?
A: 0.803

Q: What about the relative viability ([12]; first compound 0.01 µM) of the same compound?
A: 0.832

Q: What about the relative viability ([12]; first compound 0.03162 µM) of the same compound?
A: 0.626

Q: What about the relative viability ([12]; first compound 0.1 µM) of the same compound?
A: 0.371

Q: And the relative viability ([13]; first compound 0.001 µM)?
A: 0.605

Q: And the relative viability ([13]; first compound 0.003162 µM)?
A: 0.755

Q: What about the relative viability ([13]; first compound 0.01 µM) of the same compound?
A: 0.695

Q: What about the relative viability ([13]; first compound 0.03162 µM) of the same compound?
A: 0.59

Q: And the relative viability ([13]; first compound 0.1 µM)?
A: 0.595

Q: What about the relative viability ([14]; first compound 0.001 µM) of the same compound?
A: 0.601

Q: What about the relative viability ([14]; first compound 0.003162 µM) of the same compound?
A: 0.516

Q: And the relative viability ([14]; first compound 0.01 µM)?
A: 0.712

Q: What about the relative viability ([14]; first compound 0.03162 µM) of the same compound?
A: 0.495

Q: And the relative viability ([14]; first compound 0.1 µM)?
A: 0.431

Q: What about the relative viability ([15]; first compound 0.001 µM) of the same compound?
A: 0.85

Q: What about the relative viability ([15]; first compound 0.003162 µM) of the same compound?
A: 1.47

Q: And the relative viability ([15]; first compound 0.01 µM)?
A: 1.07

Q: What about the relative viability ([15]; first compound 0.03162 µM) of the same compound?
A: 0.89

Q: What about the relative viability ([15]; first compound 0.1 µM) of the same compound?
A: 0.851

Q: And the relative viability ([16]; first compound 0.001 µM)?
A: 0.544

Q: What about the relative viability ([16]; first compound 0.003162 µM) of the same compound?
A: 1.02

Q: And the relative viability ([16]; first compound 0.01 µM)?
A: 0.742

Q: What about the relative viability ([16]; first compound 0.03162 µM) of the same compound?
A: 0.532

Q: And the relative viability ([16]; first compound 0.1 µM)?
A: 0.71

Q: What about the relative viability ([17]; first compound 0.001 µM) of the same compound?
A: 0.518

Q: And the relative viability ([17]; first compound 0.003162 µM)?
A: 0.455

Q: And the relative viability ([17]; first compound 0.01 µM)?
A: 0.651

Q: And the relative viability ([17]; first compound 0.03162 µM)?
A: 0.532

Q: And the relative viability ([17]; first compound 0.1 µM)?
A: 0.498

Q: What about the relative viability ([18]; first compound 0.001 µM) of the same compound?
A: 1.12

Q: And the relative viability ([18]; first compound 0.003162 µM)?
A: 1.35

Q: What about the relative viability ([18]; first compound 0.01 µM) of the same compound?
A: 1.16

Q: What about the relative viability ([18]; first compound 0.03162 µM) of the same compound?
A: 1.15

Q: And the relative viability ([18]; first compound 0.1 µM)?
A: 1.05

Q: What about the relative viability ([19]; first compound 0.001 µM) of the same compound?
A: 0.792

Q: And the relative viability ([19]; first compound 0.01 µM)?
A: 0.668

Q: What about the relative viability ([19]; first compound 0.03162 µM) of the same compound?
A: 0.691

Q: And the relative viability ([19]; first compound 0.1 µM)?
A: 0.53

Q: What about the relative viability ([20]; first compound 0.001 µM) of the same compound?
A: 0.624

Q: And the relative viability ([20]; first compound 0.003162 µM)?
A: 0.698

Q: And the relative viability ([20]; first compound 0.01 µM)?
A: 0.734

Q: What about the relative viability ([20]; first compound 0.03162 µM) of the same compound?
A: 0.568

Q: And the relative viability ([20]; first compound 0.1 µM)?
A: 0.453

Q: And the relative viability ([21]; first compound 0.001 µM)?
A: 0.628

Q: And the relative viability ([21]; first compound 0.003162 µM)?
A: 0.756

Q: And the relative viability ([21]; first compound 0.01 µM)?
A: 0.865

Q: What about the relative viability ([21]; first compound 0.03162 µM) of the same compound?
A: 0.632

Q: What about the relative viability ([21]; first compound 0.1 µM) of the same compound?
A: 0.692

Q: And the relative viability ([22]; first compound 0.001 µM)?
A: 0.359

Q: What about the relative viability ([22]; first compound 0.003162 µM) of the same compound?
A: 0.398

Q: What about the relative viability ([22]; first compound 0.01 µM) of the same compound?
A: 0.346

Q: And the relative viability ([22]; first compound 0.03162 µM)?
A: 0.336

Q: What about the relative viability ([22]; first compound 0.1 µM) of the same compound?
A: 0.458

— the supplement of paper PMC10307832
